Experimental data as given in patent US20070172843A1, “MEK interacting protein 1 as diagnostic and therapeutic target for breast cancer treatment and prevention” (priority 2005, published 2007).

Columns and labels:
Flag-ER = experiment: Inducible 3' Flag-ER expression (ARGENT system) in stably transfected MCF-7 derivative, Western blotting; format: cell-based, human; conditions: treated six hours, Western blot, FIG. 2
From the text: To tightly regulate expression of the Flag-ER gene, the Ariad “ARGENT” inducible gene expression system (25) (www.ariad.com) was used. This system allows for tight and specific regulation of a target gene.
To identify physiologically relevant ER-interacting proteins, the MCF-7 cell line was used. […] First, a stable derivative of MCF-7 in which target genes can be inducibly expressed was constructed. The construction of this cell line and an example of its use have been previously described (27). Next, the 5′ and 3′ Flag-ER constructs were subcloned into the target vector, and these constructs were stably transfected into the MCF-7 derivative described above. […] Stable transfectants containing either 3′ Flag-ER or empty vector were treated as indicated (in FIG. 2) for six hours, and lysates were analyzed by Western blotting (WB) with antibodies to ER, Flag, or Actin.

ER = biological target: T1, ER (Homo sapiens, UniProt P03372); conditions: MCF-7 cells, 24 h in medium lacking E2, ligand for 3 h; MP1 vs empty vector; FIG. 5
T1 sequence (P03372 1-595): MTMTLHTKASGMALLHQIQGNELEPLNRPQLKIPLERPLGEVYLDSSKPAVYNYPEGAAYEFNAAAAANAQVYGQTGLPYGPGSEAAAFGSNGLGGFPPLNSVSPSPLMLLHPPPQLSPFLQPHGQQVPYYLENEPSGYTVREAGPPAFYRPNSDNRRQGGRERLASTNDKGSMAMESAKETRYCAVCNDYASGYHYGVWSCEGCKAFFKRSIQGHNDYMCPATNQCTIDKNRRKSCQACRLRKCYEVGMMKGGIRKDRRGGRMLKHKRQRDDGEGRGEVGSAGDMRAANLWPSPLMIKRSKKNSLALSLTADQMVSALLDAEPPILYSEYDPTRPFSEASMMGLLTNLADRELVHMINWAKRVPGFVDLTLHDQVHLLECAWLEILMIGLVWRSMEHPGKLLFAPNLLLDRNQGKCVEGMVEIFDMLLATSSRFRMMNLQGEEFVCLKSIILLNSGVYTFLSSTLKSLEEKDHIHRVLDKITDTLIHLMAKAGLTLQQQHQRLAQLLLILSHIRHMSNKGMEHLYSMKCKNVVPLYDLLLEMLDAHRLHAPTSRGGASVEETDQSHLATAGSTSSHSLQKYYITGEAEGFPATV

ER/MP1 complex = biological target: T2, ER/MP1 complex (Homo sapiens, UniProt P03372); conditions: MCF-7 cells pre-treated in absence of E2, then ligand for 2 h; IP with ER or MP1 antibody; FIG. 4
T2 sequence (P03372 1-595): T1 sequence (P03372 1-595)
Method: One limitation to inducible expression systems is that proteins are expressed at very high levels, and complexes may form that are not physiologically relevant. […] Cell lysates were prepared and precipitated with either 0-ER (Labvision/NeoMarker) or 0-MP1 (Santa Cruz) antibody and protein G agarose beads.

MCF-7 cells = experiment: BrdU incorporation proliferation assay in MCF-7 cells transfected with MP1 expression vector or empty vector; format: cell-based, human; conditions: ligand for 48 h, BrdU for the final 5 h, FIG. 6
Method: The ER has both genomic and non-genomic activities, and its activity in transcription assays may not fully represent its ability to regulate cell proliferation. […] To label proliferating cells, BrdU (which is incorporated into DNA during DNA synthesis) was added to the cultures for the final 5 h of incubation. Cells were then fixed, labeled with a fluorescent anti-BrdU antibody, and the percentage of cells that incorporated BrdU (ie, were proliferating) was determined.

With `CO[C@H]1[C@@H](O)[C@H](C)C[C@H](C)/C=C/C=C/C=C(\C)[C@@H](c2c[nH]c3c(C)cccc23)C[C@@H]2CC[C@@H](C)[C@@](O)(O2)C(=O)C(=O)N2CCCC[C@H]2C(=O)O[C@H]([C@H](C)C[C@@H]2CC[C@@H](O)[C@H](OC)C2)C[C@H](O)[C@H](C)/C=C(\C)[C@H]1O` [AP21967] the “Flag-ER expression from the transfected gene” value (Flag-ER; cells containing 3' Flag-ER) was “highly induced” and the “endogenous ER expression” value (Flag-ER; vector containing cells) was “did not alter this expression”.
In the case of `C[C@]12CC[C@@H]3c4ccc(O)cc4C[C@@H](CCCCCCCCC[S+]([O-])CCCC(F)(F)C(F)(F)F)[C@H]3[C@@H]1CC[C@@H]2O` (some centres unmarked) [ICI, ICI 182,780], the “effect of MP1 co-transfection on ER activity (ERE-Luc) in the presence of ligand” value (ER) is reported as “not” and the “co-precipitation of MP1 with ER (ER/MP1 complex formation)” value (ER/MP1 complex) is reported as “not”.
`CC/C(=C(\c1ccccc1)c1ccc(OCCN(C)C)cc1)c1ccccc1` [Tam, tamoxifen] was tested, and the “effect of MP1 overexpression on proliferation (percentage of cells that incorporated BrdU) in the presence of ligand” value (MCF-7 cells) was “dramatically increases proliferation”.
